Measured values from patent US7626044B2, “Triptolide derivatives and their uses” (priority 2002, dated 2009).
Read-outs that look alike come from different tables or passages of the source.

Legend:
[1] = tested on: MKN-28 (human gastric cancer); assay: Tumor cell proliferation, MKN-28; format: cell-based; details: read-out: Inhibitory effect on tumor cell proliferation IC50
[2] = tested on: BEL-7402 (human hepatic carcinoma cell); assay: Tumor cell proliferation, BEL-7402; format: cell-based; details: read-out: Inhibitory effect on tumor cell proliferation IC50
murine T lymphocytes = assay: Induction of T lymphocyte apoptosis (PI staining, FACS); format: cell-based, mouse
Description: (1) The Tuf-tainer (non-adherent to cells) was pretreated with culture medium for 2 h;
(2) As that described in proliferation assay, Balb/c mice were sacrificed and their spleens were removed aseptically. A single cell suspension was prepared and resuspended in RPMI-1640 media at 5×10^6/ml.
(3) Cells were added to 5 μg/ml ConA or medium;
(4) The cells were cultured in 5% CO2 incubator at 37° C. for 24-96 h;
(5) Cells were collected and washed with PBS, centrifugated at 400 g for 10 min at 4° C.;
(6) The collected cells were shaken 10 s violently and 1 ml ice-cold 70% ethanol was added dropwise, capped and fixed overnight at […].;
(7) The cells were centrifuged at 3000 rpm for 5 min and the ethanol was removed; Incubated cells with 1 ml PI staining buffer at room temperature more than 30 min; FACs analysis was performed with 24 h.

[3] = tested on: Sac-stimulated lymphocytes; assay: Cytokine production from Sac-stimulated lymphocytes (ELISA); format: cell-based, mouse; details: for IFN-γ production by lymphocytes stimulated with Sac, Mean Value: without drug 1302.6; for IL-12 production by lymphocytes stimulated with Sac: without drug 980; for IL-6 production by lymphocytes stimulated with Sac: without drug 1528; for IL-10 production by lymphocytes stimulated with Sac: without drug 2306; for TNF-α production by lymphocytes stimulated with Sac: without drug 4062
Description: Mice were sacrificed by cervical dislocation, and spleens were collected under sterile conditions then teased through a nylon mesh. Erythrocytes were lysed. Cells were washed and resuspended at 5×10^6/ml in RPMI-1640 media with 10% FBS.
1 ml of spleen cells were treated with or without ConA (5 μg/ml) or Sac (1:10000) and in the presence or absence of drugs in a final volume of 2 ml.
After 24 h culture at 37° C., 5% CO2 in a humidified incubator, cell-free supernatant was collected and frozen at −20° C. for ELISA.
TMB was taken as the enzyme substrate. The absorbance was measured at 450/570 nm by BioRad microplate reader. […]

[4] = tested on: anti-SRBC specific antibodies production by B lymphocytes; format: in vivo, mouse; details: ICR mice

## CC(C)[C@]12O[C@H]1[C@@H]1O[C@]13[C@]1(O[C@H]1C[C@@]1(O)C4=C(CC[C@]31C)C(=O)OC4)[C@@H]2O [LLDT-8, (5R)-5-hydroxytriptolide]
[1]
  IC50: 390 nM
[2]
  IC50: 85 nM
Murine T lymphocytes
  CD4+ and CD8+ T lymphocytes percentage: reduced CD4^+ and CD8^+ T lymphocytes percentage
Murine T lymphocytes; at concentration below or near the IC50 for lymphocyte cytotoxicity
  apoptosis of murine T lymphocytes: induced the apoptosis of murine T lymphocytes
[3]; 0.01 nM
  IFN-γ production by lymphocytes stimulated with Sac, Mean Value: 809.7 pg/mL
[3]; 0.1 nM
  IFN-γ production by lymphocytes stimulated with Sac, Mean Value: 850.5 pg/mL
[3]; 0.3 nM
  IL-12 production by lymphocytes stimulated with Sac: 917 pg/mL
  IL-6 production by lymphocytes stimulated with Sac: 1585 pg/mL
  IL-10 production by lymphocytes stimulated with Sac: 2866 pg/mL
  TNF-α production by lymphocytes stimulated with Sac: 4686 pg/mL
[3]; 1 nM
  IFN-γ production by lymphocytes stimulated with Sac, Mean Value: 810.3 pg/mL
[3]; 3 nM
  IL-12 production by lymphocytes stimulated with Sac: 939 pg/mL
  IL-6 production by lymphocytes stimulated with Sac: 1403 pg/mL
  IL-10 production by lymphocytes stimulated with Sac: 2816 pg/mL
  TNF-α production by lymphocytes stimulated with Sac: 3899 pg/mL
[3]; 10 nM
  IFN-γ production by lymphocytes stimulated with Sac, Mean Value: 465.3 pg/mL
[3]; 30 nM
  IL-12 production by lymphocytes stimulated with Sac: 602 pg/mL
  IL-6 production by lymphocytes stimulated with Sac: 989 pg/mL
  IL-10 production by lymphocytes stimulated with Sac: 3262 pg/mL
  TNF-α production by lymphocytes stimulated with Sac: 3649 pg/mL
[3]; 100 nM
  IFN-γ production by lymphocytes stimulated with Sac, Mean Value: 227.4 pg/mL
[4]; Table 11, i.p. 4 times, dosage 0.04 mg/kg, control 0.208
  QHS OD value: 0.175
[4]; Table 11, i.p. 4 times, dosage 0.04 mg/kg, control 16.8
  C3: 19.5 μg/10 μl
[4]; Table 11, i.p. 4 times, dosage 0.04 mg/kg, control 23.5
  Body weight: 23.0 g
[4]; Table 11, i.p. 4 times, dosage 0.04 mg/kg, control 39.6
  Thymus: 32.1 mg
[4]; Table 11, i.p. 4 times, dosage 0.04 mg/kg, control 66.4
  Spleen: 74.8 mg/10 g
[4]; Table 11, i.p. 4 times, dosage 0.04 mg/kg, control 185.5
  Total IgG: 176.6 μg/10 μl
[4]; Table 11, i.p. 4 times, dosage 0.2 mg/kg, control 0.208
  QHS OD value: 0.162
[4]; Table 11, i.p. 4 times, dosage 0.2 mg/kg, control 16.8
  C3: 19.7 μg/10 μl
[4]; Table 11, i.p. 4 times, dosage 0.2 mg/kg, control 23.5
  Body weight: 23.1 g
[4]; Table 11, i.p. 4 times, dosage 0.2 mg/kg, control 39.6
  Thymus: 36.9 mg
[4]; Table 11, i.p. 4 times, dosage 0.2 mg/kg, control 66.4
  Spleen: 76.3 mg/10 g
[4]; Table 11, i.p. 4 times, dosage 0.2 mg/kg, control 185.5
  Total IgG: 165.9 μg/10 μl
[4]; Table 11, i.p. 4 times, dosage 1 mg/kg, control 0.208
  QHS OD value: 0.158
[4]; Table 11, i.p. 4 times, dosage 1 mg/kg, control 16.8
  C3: 19.4 μg/10 μl
[4]; Table 11, i.p. 4 times, dosage 1 mg/kg, control 23.5
  Body weight: 22.3 g
[4]; Table 11, i.p. 4 times, dosage 1 mg/kg, control 39.6
  Thymus: 36.6 mg
[4]; Table 11, i.p. 4 times, dosage 1 mg/kg, control 66.4
  Spleen: 59.6 mg/10 g
[4]; Table 11, i.p. 4 times, dosage 1 mg/kg, control 185.5
  Total IgG: 182.9 μg/10 μl
[4]; Table 12, p.o. 4 times, dosage 0.04 mg/kg, control 0.38
  QHS OD value: 0.23
[4]; Table 12, p.o. 4 times, dosage 0.04 mg/kg, control 7.9
  C3: 6.7 μg/10 μl
[4]; Table 12, p.o. 4 times, dosage 0.04 mg/kg, control 23.4
  Body weight: 23.0 g
[4]; Table 12, p.o. 4 times, dosage 0.04 mg/kg, control 28.8
  Thymus: 28.7 mg
[4]; Table 12, p.o. 4 times, dosage 0.04 mg/kg, control 55.7
  Spleen: 69.0 mg/10 g
[4]; Table 12, p.o. 4 times, dosage 0.04 mg/kg, control 117
  Total IgG: 123 μg/10 μl
[4]; Table 12, p.o. 4 times, dosage 0.2 mg/kg, control 0.38
  QHS OD value: 0.34
[4]; Table 12, p.o. 4 times, dosage 0.2 mg/kg, control 7.9
  C3: 7.9 μg/10 μl
[4]; Table 12, p.o. 4 times, dosage 0.2 mg/kg, control 23.4
  Body weight: 24.0 g
[4]; Table 12, p.o. 4 times, dosage 0.2 mg/kg, control 28.8
  Thymus: 36.6 mg
[4]; Table 12, p.o. 4 times, dosage 0.2 mg/kg, control 55.7
  Spleen: 61.6 mg/10 g
[4]; Table 12, p.o. 4 times, dosage 0.2 mg/kg, control 117
  Total IgG: 116 μg/10 μl
[4]; Table 12, p.o. 4 times, dosage 1 mg/kg, control 0.38
  QHS OD value: 0.24
[4]; Table 12, p.o. 4 times, dosage 1 mg/kg, control 7.9
  C3: 6.8 μg/10 μl
[4]; Table 12, p.o. 4 times, dosage 1 mg/kg, control 23.4
  Body weight: 23.0 g
[4]; Table 12, p.o. 4 times, dosage 1 mg/kg, control 28.8
  Thymus: 32.5 mg
[4]; Table 12, p.o. 4 times, dosage 1 mg/kg, control 55.7
  Spleen: 63.7 mg/10 g
[4]; Table 12, p.o. 4 times, dosage 1 mg/kg, control 117
  Total IgG: 118 μg/10 μl
